In patent publication US20150010932A1, “METHODS FOR ASSAYING PROTEIN-PROTEIN INTERACTIONS” (Salk Institute for Biological Studies, priority 2013, published 2015):
Entries after “also recorded” stand apart in the source; their conditions may differ. Bridges are numbered along the chain shown (N, C = ends). [ ]: non-standard residue; d: D form. Ahx = NCCCCCC(=O)O

Assays:
[1] = system: Normal human fibroblasts (WS1 cells); assay: Lactate dehydrogenase (LDH) leakage assay, WS1 fibroblasts; format: cell-based; conditions: 25 μM and 10 μM, 6 hours, no serum
Description: (§1) Accumulation of cytoplasmic lactate dehydrogenase (LDH) in the growth medium was used as a metric of cell membrane damage. LDH was detected by the CytoTox 96 Non-Radioactive Cytotoxicity Assay Kit (Promega). The 0.8% Triton X-100 treatment (Lysed) represents the maximum LDH leakage in this experiment and its reading was set to 100%. DMSO treatment served as the vehicle control and provided an indication of the presence of trace amounts of LDH in the serum and spontaneous LDH leakage from cells. The value obtained in the presence of DMSO was set to 0%. Data are shown as mean±SD (n=3). (B) Normal human fibroblasts (WS 1 cells) were treated exactly as in (A). Data are shown as mean±SD (n=3).S
(§2) Saos-2 and WS 1 cells were seeded into 96-well plates (20,000 cells per well) and incubated at 37° C. […] LDH leakage into media was detected by the CytoTox 96 Non-Radioactive Cytotoxicity Assay Kit (Promega G1780) per manufacture's protocol. Assay background was evaluated by using the LDH reading from wells containing only media and PPI antagonists with or without 10% FBS and was subtracted from the values obtained in the presence of the PPI antagonists. Cells lysed by 0.8% Triton X-100 (provided by the Kit), a concentration sufficient to ensure lyse all cells but low enough not to interfere with the LDH assay, represents the maximum LDH leakage in this experiment and its reading is set to 100%. […]

Saos-2 cells = assay: Lactate dehydrogenase (LDH) leakage assay, Saos-2 cells; conditions: 25 μM and 10 μM, 6 hours, no serum
Description: as §1, §2

p53-Mdm4 complexes [2] = target: T1, p53-Mdm4 complexes (Homo sapiens, UniProt O15151); assay: Real-time BiLC (ReBiL) assay in living cells, p53-Mdm4 reporter (Saos-2 134-354)
T1 sequence (O15151 2-111): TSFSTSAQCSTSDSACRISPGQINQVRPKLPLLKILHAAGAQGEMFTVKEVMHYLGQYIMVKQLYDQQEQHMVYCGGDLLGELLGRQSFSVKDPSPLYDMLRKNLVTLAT

p53-Mdm4 complexes [3] = target: T1, p53-Mdm4 complexes; assay: BiLC assay using cell lysates, p53-Mdm4; format: biochemical; set-up: 2-111) was cloned into pLi317; cLuc (C-terminal split firefly luciferase fragment, amino acids 398-550; expressed in transfected cells; host or cells: Saos-2 134-354 (single-copy RMCE integration, doxycycline-induced); the lysate assay text says Saos-2 or U2OS reporter cells; conditions: no FBS
Protocol: (A) Cell lysates obtained from nLuc-p53 and cLuc-Mdm2 or nLuc-p53 and cLuc-Mdm4 ReBiL expressing reporter cells were incubated with the indicated PPI antagonists in the absence of FBS in a 384-well plate at room temperature for 10 minutes. Steady-Glo luciferase reagent was added, and luminescence was measured in a Tecan M200 luminometer at 26° C. Data are shown as mean±standard deviation (n=3) and normalized to the luminescent reading of DMSO (set to 100%). (B) The BiLC lysate assays were identical to (A) except for the inclusion of 10% FBS. Data are shown as mean±standard deviation (n=3) and normalized to the luminescent reading of DMSO (set to 100%).
(§3) (A) Small molecule PPI antagonists were tested in p53-Mdm2 and p53-Mdm4 BiLC lysate assays without FBS. […] Data are shown as mean±standard deviation (n=3) and normalized to the luminescent reading of DMSO (set to 100%).
The 4× concentrated drugs diluted in DMEM/F12 media were pipetted into 384 well plates, 10 μl per well. Cells were washed with PBS-twice and lysed with PLB buffer (100 mM Tris-HCl pH 7.5; 0.5 mM EDTA; 150 mM NaCl; 0.1% Triton X-100, 1 mM sodium orthovanadate, 50 mM sodium fluoride, and Roche Complete Mini Protease Inhibitor Cocktail). […] The clear lysates were collected, diluted with DMEM (˜300 μl DMEM added into 100 μl lysates); 10 μl of diluted lysates were pipetted into each of the 384-wells, and the plates were incubated at room temperature for 10 minutes. 20 μl of luciferin reagents were added (Promega Bright-Glo E2620 or Steady-Glo E2520) into each well and luminescence was measured in a Tecan M200: integration time 0.5 seconds, 3˜5 minutes per cycle for total 30 minutes at 26° C.

p53-Mdm2 complexes [4] = target: T2, p53-Mdm2 complexes (Homo sapiens, UniProt Q00987); assay: BiLC assay using cell lysates, p53-Mdm2; format: biochemical; conditions: no FBS
T2 construct: cLuc-linker-FLAG-Mdm2-108 (generated); cLuc (C-terminal split firefly luciferase fragment, amino acids 398-550); expressed in transfected cells; host or cells: Saos-2 134-385 (single-copy RMCE integration, doxycycline-induced); the lysate assay text says Saos-2 or U2OS reporter cells
Protocol: FIGS. 5A and 5B show a set of graphs illustrating that the BiLC lysate assay can be used to determine if serum prevents SAH peptides from disrupting p53-Mdm2 or p53-Mdm4 complexes. (A) Cell lysates obtained from nLuc-p53 and cLuc-Mdm2 or nLuc-p53 and cLuc-Mdm4 ReBiL expressing reporter cells were incubated with the indicated PPI antagonists in the absence of FBS in a 384-well plate at room temperature for 10 minutes. Steady-Glo luciferase reagent was added, and luminescence was measured in a Tecan M200 luminometer at 26° C. Data are shown as mean±standard deviation (n=3) and normalized to the luminescent reading of DMSO (set to 100%). (B) The BiLC lysate assays were identical to (A) except for the inclusion of 10% FBS. Data are shown as mean±standard deviation (n=3) and normalized to the luminescent reading of DMSO (set to 100%).
as §3
The 4× concentrated drugs diluted in DMEM/F12 media were pipetted into 384 well plates, 10 μl per well. […] 20 μl of luciferin reagents were added (Promega Bright-Glo E2620 or Steady-Glo E2520) into each well and luminescence was measured in a Tecan M200: integration time 0.5 seconds, 3˜5 minutes per cycle for total 30 minutes at 26° C.

p53-Mdm2 complexes [5] = target: T2, p53-Mdm2 complexes; assay: Real-time BiLC (ReBiL) assay in living cells, p53-Mdm2 reporter (Saos-2 134-385); format: cell-based
Protocol: Data shown are mean±standard deviation (n=8). […] Actin was used as a loading control. […] Luminescent signals were measured every 10 minutes for 10 hours in a Tecan-M200 at 37° C. Data shown are mean±standard deviation (n=4). […] The nLuc-p53 and cLuc-Mdm2 fusion proteins were detected by anti-FLAG and anti-HA antibodies, respectively, and Actin was used as a loading control.
At Time=0, the cells were washed with Dulbecco's modified Eagle medium (DMEM) once, and treated with new media containing different PPI antagonists and with or without 10% fetal bovine serum (FBS).
Two strategies were used to avert cytotoxicity or cell cycle arrest that could be generated by wild type p53 activation. First, p53 null Saos-2 cells were used as the host cell line for ReBiL reporters.
The Saos-2 ReBiL reporter cells were washed, trypsinized and cell numbers were determined. […] Supernatants were discarded, ReBiL reporter cells were resuspended with DMEM/F12 (phenol-red free) and 20 μl cells were pipetted into each well. […]
(a) The following protocol was used to evaluate small molecule PPI antagonists. […] The next day, the cells were washed, trypsinized, and cell numbers were determined. […] The plate was sealed with a MicroAmp Optical Adhesive Film, and luminescence was measured in a Tecan M200: integration time 2 seconds, 5˜10 minutes per cycle for total 6 hours at 37° C.

[6] = target: T3, Mdm2-Mdm4 N-terminal BiLC pair (Homo sapiens, UniProt O15151+Q00987); assay: Real-time BiLC assay in U2OS Mdm4-111/Mdm2-108 ReBiL reporter cells (U2OS 134-544); format: cell-based; conditions: U2OS 134-544 cells, compound with doxycycline at Time=0, 24 hours
T3 construct: linker-FLAG-Mdm2-108 (generated by; 2-111) was cloned into pLi223; cLuc (split firefly luciferase amino acids 398-550); nLuc (split firefly luciferase amino acids 1-416); expressed in transfected cells; host or cells: U2OS 134-544 (RMCE integration, doxycycline-induced)
Description: Data are shown as mean±standard deviation (n=6). […] Data are shown as mean±standard deviation (n=4).

[7] = living Saos-2 cells, doxycycline withdrawal, small molecule protocol

T2 sequence (Q00987 2-108, one chain of several): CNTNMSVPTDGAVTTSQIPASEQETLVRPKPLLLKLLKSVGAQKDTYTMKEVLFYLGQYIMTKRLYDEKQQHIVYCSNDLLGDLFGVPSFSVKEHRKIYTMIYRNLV
T3 sequence (Q00987 2-108, one chain of several): as above

Compound	LDH leakage (cell membrane damage), absence of serum (Saos-2 cells)	p53-Mdm4 disruption in lysate BiLC assay, without FBS (p53-Mdm4 complexes [3])	p53-Mdm2 disruption in lysate BiLC assay, without FBS (p53-Mdm2 complexes [4])	other results
COc1ccc(C2=N[C@@H](c3ccc(Cl)cc3)[C@@H](c3ccc(Cl)cc3)N2C(=O)N2CCNC(=O)C2)c(OC(C)C)c1 [Nutlin-3a]	failed to induce membrane leakage	–	–	LDH leakage (cell membrane damage), absence of serum [1]: failed to induce membrane leakage
CCOc1cc(/C=C2/C(=O)N(c3ccccc3)N=C2C)cc(Cl)c1OCC(=O)OC [SJ-172550]	–	no activity; also recorded: poor p53/Mdm4 antagonist	no activity	p53-Mdm4 BiLC signal (newly synthesized complexes) (p53-Mdm4 complexes [2]; living Saos-2 134-354 cells, compound added with doxycycline at Time=0, 10% FBS): No decrease in p53-Mdm4 luciferase signal was detected; also recorded: virtually no activity
MI-219	–	–	–	Ability to interfere selectively with p53-Mdm2 interaction (p53-Mdm2 complexes [5]; ReBiL strategy): interfere selectively with p53-Mdm2 interaction was confirmed
RO-5963	–	no activity	no activity	Disruption of pre-formed p53-Mdm4 BiLC complexes (p53-Mdm4 complexes [2]; [7]): did not efficiently disrupt; Mdm2-Mdm4 N-terminal domain association (luminescent signal) [6]: increased luminescent signals were detected; Disruption of pre-formed p53-Mdm2 BiLC complexes (p53-Mdm2 complexes [5]; [7]): did not efficiently disrupt
cyclo(ACICRGNGYCG[Ahx]TSFAEYWNLLSGVCPKILQRCRRDSDCPG) (disulfide 2-26, 4-33, 10-39) [McoTi-1-PMI]	all except one (McoTi-1-PMI), damage cell membranes	–	–	–
